Data on one substance can be found in patent US10221426B2, “Constitutively active PYR/PYL receptor proteins for improving plant stress tolerance” (The Regents of the University of California, priority 2009, dated 2019).

The subject of this assay is PYR/PYL receptors PYR1, PYL2, PYL3, and/or PYL4. The experiment in a line: Yeast two hybrid agonist screens (conventional and halo assays; compound library and plant extracts). The assay is classed as cell-based, Arabidopsis. The source says: We next investigated whether other compounds besides ABA and pyrabactin could act as agonists of PYR/PYL proteins. Yeast two hybrid strains expressing ABA-receptors and type 2 C protein phosphatases in the appropriate vectors can be used to monitor activation of ABA receptors. These yeast strains therefore create a facile screening system for the identification of cell permeant compounds that act as ABA agonists, i.e. compounds that promote binding of PYR/PYL family members to their protein phosphatase targets. […]
To conduct these agonist assays, screening compounds are added to microtiter wells and appropriate yeast growth media are added. The wells are then seeded with PYR/PYL-PP2C strains and agonist activity is monitored after growth of the strains on the chemical-containing medium. […]
Using a combination of the conventional and halo assays as described above, 65,000 screening compounds were tested for activation of PYR1, PYL2, PYL3 or PYL4 expressing yeast two hybrid strains. Hit compounds that activated any of the yeast strains were retested on all 4 yeast strains and activity assessed qualitatively using X-gal staining assays. […]

For copaenoic acid, the “activation of PYR/PYL yeast two hybrid strains” value was “naturally occurring ABA agonist”.
